Data published in ChEMBL document CHEMBL1151506, “Carboxyl-promoted enhancement of selectivity for the 3 adrenergic receptor. Negative charge of the sulfonic acid BMS-187413 introduces-3 binding selectivity” (Bioorg Med Chem Lett, 1997).

Key:
[1] = biological target: Beta-2 adrenergic receptor and beta-3 adrenergic receptor (Homo sapiens) (UniProt P07550+P13945); assay: Binding selectivity ratio for beta 3 over beta 2 AR (S beta3/beta2); assay type: protein assay
[2] = biological target: Adrenergic receptor beta; ADRB1 & ADRB3 (Homo sapiens) (UniProt P08588+P13945); assay: Binding selectivity ratio for beta 3 over beta 1 AR (S beta3/beta1); assay type: protein assay
[3] = biological target: T1, Beta-3 adrenergic receptor (Homo sapiens, UniProt P13945); assay: Ability to bind to human Beta-3 adrenergic receptor using membranes of stably transfected CHO cells; assay type: cell-based
Target sequence in this assay (P13945 whole entry): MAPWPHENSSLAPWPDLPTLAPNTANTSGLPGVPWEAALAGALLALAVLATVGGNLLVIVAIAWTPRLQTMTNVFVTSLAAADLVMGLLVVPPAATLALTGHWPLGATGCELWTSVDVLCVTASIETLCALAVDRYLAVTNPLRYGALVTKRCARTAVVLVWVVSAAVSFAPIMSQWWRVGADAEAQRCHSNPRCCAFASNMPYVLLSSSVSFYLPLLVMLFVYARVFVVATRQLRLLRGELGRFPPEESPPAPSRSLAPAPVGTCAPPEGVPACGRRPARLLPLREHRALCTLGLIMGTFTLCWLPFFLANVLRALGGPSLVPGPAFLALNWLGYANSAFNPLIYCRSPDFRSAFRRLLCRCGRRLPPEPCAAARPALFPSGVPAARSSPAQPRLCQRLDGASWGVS

[4] = biological target: Beta-2 adrenergic receptor (Homo sapiens, UniProt P07550); assay: Ability to bind to human Beta-2 adrenergic receptor using membranes of stably transfected CHO cells; assay type: cell-based
[5] = biological target: T1, Beta-3 adrenergic receptor; assay: Effective concentration for stimulation of adenylyl cyclase activity in CHO-beta3 AR expressing cell membranes; assay type: functional
Target sequence in this assay (P13945 whole entry): as above

[6] = biological target: Beta-1 adrenergic receptor (Homo sapiens, UniProt P08588); assay: Ability to bind to human Beta-1 adrenergic receptor using membranes of stably transfected CHO cells; assay type: cell-based
[7] = biological target: T1, Beta-3 adrenergic receptor; assay: Intrinsic activity as maximal cyclase activity in CHO-beta3 AR cell membranes compared to (-)-isoproterenol; assay type: functional, cell-based
Target sequence in this assay (P13945 whole entry, looked up): as the sequence (P13945 whole entry) above

Sequence of Beta-2 adrenergic receptor (P07550 whole entry): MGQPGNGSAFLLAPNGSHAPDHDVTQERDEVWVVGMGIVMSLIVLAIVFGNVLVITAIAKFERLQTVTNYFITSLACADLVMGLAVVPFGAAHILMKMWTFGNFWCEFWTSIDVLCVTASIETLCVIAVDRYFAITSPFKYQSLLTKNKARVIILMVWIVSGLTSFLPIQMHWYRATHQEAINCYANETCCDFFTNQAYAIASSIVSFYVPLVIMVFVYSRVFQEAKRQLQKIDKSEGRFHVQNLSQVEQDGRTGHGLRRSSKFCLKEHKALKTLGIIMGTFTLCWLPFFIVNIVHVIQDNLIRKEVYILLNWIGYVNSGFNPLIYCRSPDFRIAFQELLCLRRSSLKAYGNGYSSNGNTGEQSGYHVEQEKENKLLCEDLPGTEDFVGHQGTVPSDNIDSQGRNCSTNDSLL
Sequence of Adrenergic receptor beta; ADRB1 & ADRB3 (Homo sapiens) (P08588 whole entry, looked up): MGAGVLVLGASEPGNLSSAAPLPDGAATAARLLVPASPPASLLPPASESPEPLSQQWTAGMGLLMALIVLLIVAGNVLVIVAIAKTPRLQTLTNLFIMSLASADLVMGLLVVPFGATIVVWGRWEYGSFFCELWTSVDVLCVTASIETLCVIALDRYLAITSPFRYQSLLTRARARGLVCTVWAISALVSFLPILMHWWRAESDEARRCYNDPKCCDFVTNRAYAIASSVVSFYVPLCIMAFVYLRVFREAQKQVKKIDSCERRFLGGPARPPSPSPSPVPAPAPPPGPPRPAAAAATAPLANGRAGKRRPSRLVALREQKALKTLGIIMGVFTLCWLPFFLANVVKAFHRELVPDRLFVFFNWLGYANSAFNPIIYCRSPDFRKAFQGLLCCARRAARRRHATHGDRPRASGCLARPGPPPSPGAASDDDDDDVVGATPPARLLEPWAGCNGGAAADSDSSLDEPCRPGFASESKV
Sequence of Adrenergic receptor beta; ADRB1 & ADRB3 (Homo sapiens) (P13945 whole entry, looked up): as the sequence (P13945 whole entry) above
Sequence of Beta-1 adrenergic receptor (P08588 whole entry): as the sequence (P08588 whole entry, looked up) above

Compound	Selectivity [1]	Selectivity [2]	Ki [3]	Ki [4]	EC50 [5]	Ki [6]	Activity [7]
C[C@H](Cc1ccc(OCS(=O)(=O)O)cc1)NC[C@H](O)c1cccc(Cl)c1	2.8	9.4	806 nM	2250 nM	60 nM	7600 nM	0.57
C[C@H](Cc1ccc(OCC(N)=O)cc1)NC[C@H](O)c1cccc(Cl)c1	0.046	0.16	3700 nM	170 nM	1610 nM	590 nM	0.6
C[C@H](Cc1ccc(OCP(C)(=O)O)cc1)NC[C@H](O)c1cccc(Cl)c1	3.7	7	19900 nM	73700 nM		140000 nM	
C[C@H](Cc1ccc(OCP(=O)(O)O)cc1)NC[C@H](O)c1cccc(Cl)c1	0.72	> 1.8	55300 nM	39700 nM	2640 nM	> 100000 nM	0.53
C[C@H](Cc1ccc(OCC(=O)O)cc1)NC[C@H](O)c1cccc(Cl)c1							0.67
COC(=O)COc1ccc(C[C@@H](C)NC[C@H](O)c2cccc(Cl)c2)cc1	0.0028	0.15	1150 nM	3.2 nM	420 nM	170 nM	0.69
C[C@H](Cc1ccc(OCC(=O)NO)cc1)NC[C@H](O)c1cccc(Cl)c1	0.057	0.16	1960 nM	112 nM	1610 nM	310 nM	0.66
CC(C)OP(=O)(O)COc1ccc(C[C@@H](C)NC[C@H](O)c2cccc(Cl)c2)cc1	2.3	7.4	18800 nM	42600 nM	610 nM	139000 nM	0.59
C[C@H](Cc1ccc(OCCO)cc1)NC[C@H](O)c1cccc(Cl)c1	0.12	0.58	2140 nM	260 nM	750 nM	1250 nM	0.77
C[C@H](Cc1ccc(OC(C(=O)O)C(=O)O)cc1)NC[C@H](O)c1cccc(Cl)c1	1.5	22	11100 nM	17100 nM		243000 nM	
